Measurements: PubChem BioAssay AID1259407 (Chemical Carcinogenesis Research Information System (CCRIS), 2018)
Calls of active or inactive are those of the source. No rule for the calls is given here.

System: CCRIS mutagenicity, Ames/micronucleus/aberration tests
Test: CCRIS mutagenicity studies
Conditions: Test System: AMES SALMONELLA TYPHIMURIUM
[1] = Strain/Indicator: TA97, Metabolic Activation: NONE, Method: PREINCUBATION
[2] = Strain/Indicator: TA98, Metabolic Activation: NONE, Method: PREINCUBATION
[3] = Strain/Indicator: TA98, Metabolic Activation: RAT, LIVER, S-9, AROCLOR 1254, Method: PREINCUBATION
[4] = Strain/Indicator: TA100, Metabolic Activation: NONE, Method: PREINCUBATION
[5] = Strain/Indicator: TA98, Metabolic Activation: NONE, Method: STANDARD PLATE
[6] = Strain/Indicator: TA100, Metabolic Activation: NONE, Method: STANDARD PLATE

**Q.** Which results are given for `c1ccc(N2CCNCC2)cc1`?
**A.** mutagenic call (Strain/Indicator: TA97, Metabolic Activation: HAMSTER, LIVER, S-9, AROCLOR 1254, Method: PREINCUBATION): inactive; negative; mutagenic call [1]: inactive; negative; mutagenic call (Strain/Indicator: TA97, Metabolic Activation: RAT, LIVER, S-9, AROCLOR 1254, Method: PREINCUBATION): inactive; negative; mutagenic call (Strain/Indicator: TA98, Metabolic Activation: HAMSTER, LIVER, S-9, AROCLOR 1254, Method: PREINCUBATION): inactive; negative; mutagenic call [2]: inactive; negative; mutagenic call [3]: inactive; negative; mutagenic call (Strain/Indicator: TA100, Metabolic Activation: HAMSTER, LIVER, S-9, AROCLOR 1254, Method: PREINCUBATION): inactive; negative; mutagenic call [4]: inactive; negative; mutagenic call (Strain/Indicator: TA100, Metabolic Activation: RAT, LIVER, S-9, AROCLOR 1254, Method: PREINCUBATION): inactive; negative

**Q.** Which results are given for `CC(C)(C)NC[C@@H](O)COc1ccccc1C1CCCC1`?
**A.** mutagenic call [5]: active; positive; mutagenic call (Strain/Indicator: TA98, Metabolic Activation: RAT, LIVER, S-9, AROCLOR 1254, Method: STANDARD PLATE): active; positive

**Q.** What does the source list for `O=[N+]([O-])c1ccc(Nc2ccc(N=C=S)cc2)cc1`?
**A.** mutagenic call [2]: inactive; negative; mutagenic call [5]: inactive; negative; mutagenic call [3]: inactive; negative; mutagenic call (Strain/Indicator: TA98, Metabolic Activation: RAT, LIVER, S-9, AROCLOR 1254 OR PHENOBARBITOL, Method: STANDARD PLATE): inactive; negative; mutagenic call [6]: inactive; negative; mutagenic call (Strain/Indicator: TA100, Metabolic Activation: RAT, LIVER, S-9, AROCLOR 1254 OR PHENOBARBITOL, Method: STANDARD PLATE): inactive; negative; mutagenic call (Strain/Indicator: TA1535, Metabolic Activation: NONE, Method: STANDARD PLATE): inactive; negative; mutagenic call (Strain/Indicator: TA1535, Metabolic Activation: RAT, LIVER, S-9, AROCLOR 1254 OR PHENOBARBITOL, Method: STANDARD PLATE): inactive; negative; mutagenic call (Strain/Indicator: TA1537, Metabolic Activation: NONE, Method: STANDARD PLATE): inactive; negative; mutagenic call (Strain/Indicator: TA1537, Metabolic Activation: RAT, LIVER, S-9, AROCLOR 1254 OR PHENOBARBITOL, Method: STANDARD PLATE): inactive; negative; mutagenic call (Strain/Indicator: TA1538, Metabolic Activation: NONE, Method: STANDARD PLATE): inactive; negative; mutagenic call (Strain/Indicator: TA1538, Metabolic Activation: RAT, LIVER, S-9, AROCLOR 1254 OR PHENOBARBITOL, Method: STANDARD PLATE): inactive; negative

**Q.** Which results are given for `CCN(CC)c1ccc(N=O)c(O)c1`?
**A.** mutagenic call (Strain/Indicator: TA97, Metabolic Activation: HAMSTER, LIVER, S-9, AROCLOR 1254 (10%), Method: PREINCUBATION): inactive; negative; mutagenic call (Strain/Indicator: TA97, Metabolic Activation: HAMSTER, LIVER, S-9, AROCLOR 1254 (30%), Method: PREINCUBATION): inactive; negative; mutagenic call [1]: inactive; negative; mutagenic call (Strain/Indicator: TA97, Metabolic Activation: RAT, LIVER, S-9, AROCLOR 1254 (10%), Method: PREINCUBATION): inactive; negative; mutagenic call (Strain/Indicator: TA97, Metabolic Activation: RAT, LIVER, S-9, AROCLOR 1254 (30%), Method: PREINCUBATION): inactive; negative; mutagenic call (Strain/Indicator: TA98, Metabolic Activation: HAMSTER, LIVER, S-9, AROCLOR 1254 (5 OR 10%), Method: PREINCUBATION): inactive; negative; mutagenic call (Strain/Indicator: TA98, Metabolic Activation: HAMSTER, LIVER, S-9, AROCLOR 1254 (30%), Method: PREINCUBATION): inactive; negative; mutagenic call [2]: inactive; negative; mutagenic call (Strain/Indicator: TA98, Metabolic Activation: RAT, LIVER, S-9, AROCLOR 1254 (5 OR 10%), Method: PREINCUBATION): inactive; negative; mutagenic call (Strain/Indicator: TA98, Metabolic Activation: RAT, LIVER, S-9, AROCLOR 1254 (30%), Method: PREINCUBATION): inactive; negative; mutagenic call (Strain/Indicator: TA100, Metabolic Activation: HAMSTER, LIVER, S-9, AROCLOR 1254 (10%), Method: PREINCUBATION): inactive; negative; mutagenic call (Strain/Indicator: TA100, Metabolic Activation: HAMSTER, LIVER, S-9, AROCLOR 1254 (30%), Method: PREINCUBATION): inactive; negative; mutagenic call [4]: inactive; negative; mutagenic call (Strain/Indicator: TA100, Metabolic Activation: RAT, LIVER, S-9, AROCLOR 1254 (10%), Method: PREINCUBATION): inactive; negative; mutagenic call (Strain/Indicator: TA100, Metabolic Activation: RAT, LIVER, S-9, AROCLOR 1254 (30%), Method: PREINCUBATION): inactive; negative; mutagenic call (Strain/Indicator: TA1535, Metabolic Activation: HAMSTER, LIVER, S-9, AROCLOR 1254 (10%), Method: PREINCUBATION): inactive; negative; mutagenic call (Strain/Indicator: TA1535, Metabolic Activation: HAMSTER, LIVER, S-9, AROCLOR 1254 (30%), Method: PREINCUBATION): inactive; negative; mutagenic call (Strain/Indicator: TA1535, Metabolic Activation: NONE, Method: PREINCUBATION): inactive; negative; mutagenic call (Strain/Indicator: TA1535, Metabolic Activation: RAT, LIVER, S-9, AROCLOR 1254 (10%), Method: PREINCUBATION): inactive; negative; mutagenic call (Strain/Indicator: TA1535, Metabolic Activation: RAT, LIVER, S-9, AROCLOR 1254 (30%), Method: PREINCUBATION): inactive; negative; mutagenic call (Strain/Indicator: TA1537, Metabolic Activation: HAMSTER, LIVER, S-9, AROCLOR 1254 (30%), Method: PREINCUBATION): inactive; negative; mutagenic call (Strain/Indicator: TA1537, Metabolic Activation: NONE, Method: PREINCUBATION): inactive; negative; mutagenic call (Strain/Indicator: TA1537, Metabolic Activation: RAT, LIVER, S-9, AROCLOR 1254 (30%), Method: PREINCUBATION): inactive; negative; mutagenic call (Strain/Indicator: TA1538, Metabolic Activation: HAMSTER, LIVER, S-9, AROCLOR 1254 (10%), Method: PREINCUBATION): inactive; negative; mutagenic call (Strain/Indicator: TA1538, Metabolic Activation: HAMSTER, LIVER, S-9, AROCLOR 1254 (30%), Method: PREINCUBATION): inactive; negative; mutagenic call (Strain/Indicator: TA1538, Metabolic Activation: NONE, Method: PREINCUBATION): inactive; negative; mutagenic call (Strain/Indicator: TA1538, Metabolic Activation: RAT, LIVER, S-9, AROCLOR 1254 (10 OR 30%), Method: PREINCUBATION): inactive; negative

**Q.** Which mutagenic call (Strain/Indicator: TA100, Metabolic Activation: RAT, LIVER, S-9, 3-METHYLCHOLANTHRENE, Method: STANDARD PLATE) does the source give for `c1ccc2c3c4c(cc5ccccc5c4cc2c1)C1=C3CCCC1` here?
**A.** active; positive

**Q.** Which mutagenic call [5] does the source give for `CC(C)c1ccc(/C=C/c2ccc(N)cc2)cc1` here?
**A.** inactive; negative

**Q.** And the mutagenic call (Strain/Indicator: TA98, Metabolic Activation: RAT, LIVER, S9, AROCLOR, Method: STANDARD PLATE)?
**A.** active; positive

**Q.** And the mutagenic call [6]?
**A.** inactive; negative

**Q.** What about the mutagenic call (Strain/Indicator: TA100, Metabolic Activation: RAT, LIVER, S9, AROCLOR, Method: STANDARD PLATE) of the same compound?
**A.** active; positive
